# From PMC3739791, “Sonic Hedgehog-Induced Histone Deacetylase Activation Is Required for Cerebellar Granule Precursor Hyperplasia in Medulloblastoma” (PLoS ONE, 2013)
# Target: T1, HDAC6 (Mus musculus, UniProt Q9Z2V5)
# T1 sequence (Q9Z2V5 1-1149): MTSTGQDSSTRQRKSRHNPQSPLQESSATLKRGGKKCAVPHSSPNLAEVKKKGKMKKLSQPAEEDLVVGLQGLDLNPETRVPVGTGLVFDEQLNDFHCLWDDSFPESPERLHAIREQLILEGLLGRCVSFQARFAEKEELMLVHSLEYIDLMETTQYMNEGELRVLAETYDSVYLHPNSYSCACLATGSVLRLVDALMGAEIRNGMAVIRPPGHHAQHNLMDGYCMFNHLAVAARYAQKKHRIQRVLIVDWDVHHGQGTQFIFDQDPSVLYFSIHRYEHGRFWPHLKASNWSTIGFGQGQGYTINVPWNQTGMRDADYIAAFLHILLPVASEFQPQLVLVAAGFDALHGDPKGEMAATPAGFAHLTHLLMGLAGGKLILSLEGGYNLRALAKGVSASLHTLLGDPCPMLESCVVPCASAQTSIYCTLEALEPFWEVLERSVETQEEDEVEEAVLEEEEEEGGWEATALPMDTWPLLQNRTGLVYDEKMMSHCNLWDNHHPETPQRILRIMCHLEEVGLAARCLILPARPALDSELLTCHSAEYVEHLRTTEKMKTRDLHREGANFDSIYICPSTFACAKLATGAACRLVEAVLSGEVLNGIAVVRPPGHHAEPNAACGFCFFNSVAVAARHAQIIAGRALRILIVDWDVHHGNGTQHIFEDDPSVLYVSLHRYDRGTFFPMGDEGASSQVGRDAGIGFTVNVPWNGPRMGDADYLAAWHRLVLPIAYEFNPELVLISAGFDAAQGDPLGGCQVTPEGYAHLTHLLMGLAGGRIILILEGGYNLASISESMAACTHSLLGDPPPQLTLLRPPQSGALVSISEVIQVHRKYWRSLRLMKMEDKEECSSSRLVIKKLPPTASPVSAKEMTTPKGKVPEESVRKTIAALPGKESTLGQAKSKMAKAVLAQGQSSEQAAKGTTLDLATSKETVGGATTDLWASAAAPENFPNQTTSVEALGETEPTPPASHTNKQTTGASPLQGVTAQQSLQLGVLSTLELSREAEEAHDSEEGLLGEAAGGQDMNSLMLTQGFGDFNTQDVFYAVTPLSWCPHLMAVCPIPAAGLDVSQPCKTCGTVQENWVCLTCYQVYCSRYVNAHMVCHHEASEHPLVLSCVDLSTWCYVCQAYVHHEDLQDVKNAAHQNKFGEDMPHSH
# Assay: acetylated tubulin immunohistochemistry in brain sections of treated Smo/Smo mice (readout of HDAC6 inhibition in vivo)
# Format: cell-based
structure (smiles),measurement,value
CN1CCc2c(c3ccccc3n2Cc2ccc(C(=O)NO)cc2)C1 [Tubastatin A],acetylated tubulin immunohistochemistry in brain sections of treated Smo/Smo mic,although tubulin acetylation as a measure for HDAC6 inhibition was increased (Fig. S4)
